According to patent publication US20050148521A1, “Anti-cancer combination and use thereof” (Yissum Research Development Company of the Hebrew University, priority 2002, published 2005):
Entries after “also recorded” stand apart in the source; their conditions may differ.

Assays:
[1] = test system: EMT6/CTX mouse breast cancer cell line; assay: EMT6/CTX subcutaneous tumor growth in mice (tumor volume); type: in vivo
From the text: Breast cancer is a highly lethal disease. To test the efficacy of rofecoxib, benzyl benzoate, cyclophosphamide, and pamidronate alone and in combination, a mouse breast cancer cell line, EMT6, that was originally isolated from a spontaneous tumor in a BALB/c mouse was used (Twentyman P R and Watson J V, Br. J. Cancer 35: 120 (1977)). This line was further selected for a drug resistant variant, EMT6/CTX, that was used in this study (Teicher B A et al. Cancer Chemother. Pharmacol. 37: 601 (1996)). An EMT6/CTX cell suspension was freshly prepared in DMEM medium+10% FCS, following trypsinization of cell grown in tissue culture. Anesthesia is performed by injecting 0.08 ml per mouse of Ketamine 30 mg/ml+0.07% Chanazine in PBS.
Rofecoxib (Vioxx, a Merck & Co. Inc. product), as an oral suspension. Diclofenac, water-soluble Vitamin K3 (menadione sodium bisulfite) and Benzyl benzoate, purchased from Sigma-Aldrich (St. Louise, […].), were formulated into solution in double-distilled water plus 2% Tween 20 (J.T. Baker, NJ). Cyclophosphamide, purchased from Bristol-Meyers Squibb (Princeton, N.J.), was formulated into solution in double-distilled water plus 2% Tween 20. Pamidronate (Pamidronic acid) was dissolved in 2M HEPES. The following doses were used for treatment in all three experiments: Rofecoxib 10 mg/kg, pamidronate 10 mg/kg, Diclofenac 30 or 60 mg/kg, menadione sodium bisulfite 20 or 50 mg/kg, cyclophosphamide (CTX) 50, 60 or 100 mg/kg and benzyl benzoate 80 or 550 mg/kg. Vehicle: 2% Tween 20 in double distilled water. The preparations were made in a concentration that will require an i.p. injection of 0.1 ml per 20 gr body weight to achieve the above doses.
All treatments were started 5 days after cell inoculation. Treatment comprised an intraperitoneal injection of 0.1 ml per 20 gr body weight of the formulation. Mice were treated twice a week for a period of 3 weeks.
Tumor dimensions were measured twice a week. Tumor volume was calculated according to conventional methods (volume=a^2×b×0.52 where a represents the tumor width and b is its length) and the data are represented as changes in tumor volume with time. Toxicity was evaluated by qualitative observation of the general appearance and behavior of the mice, by measuring their body weight during various intervals during the course of the treatments and by obtaining mortality data.

tumor-bearing mice = assay: Own studies with tumor-bearing mice, agent given by itself; type: in vivo
cancer = details: Tetef M. et al. J. Cancer Res. Clin. Oncol. 121: 103-6 (1995); cited from earlier work

O=C(OCc1ccccc1)c1ccccc1 [A, Benzyl benzoate]
tumor volume, comparison of regimen ([1]; Experiment 4, FIG. 4, (CTX 50+BC)x2 per week+1/6A x6 per week vs CTX 50+ABC twice a week, 4 weeks): superiority of spreading the dose of A throughout the week

O=P1(N(CCCl)CCCl)NCCCO1 (stereo not shown) [CTX 50, Cyclophosphamide]
effect on tumor growth ([1]; Experiment 3, FIG. 3, i.p. twice a week for 4 weeks, start 3 days after inoculation): moderate effect on tumor growth
tumor volume, comparison of regimen ([1]; Experiment 7, FIG. 7, CTX 100 Sun. or CTX20 all week, D50 1, 3 or 5 days apart, A all week, 4 weeks): preferred over equal small doses throughout the week

O=C(O)Cc1ccccc1Nc1c(Cl)cccc1Cl [D, Diclofenac]
tumor volume, comparison of NSAID ([1]; Experiment 6, FIG. 6, NSAID Wed. with or without B, CTX 100 Sun., A all week, 4 weeks): superiority of D (25 and 50 mg/kg) over C (5 and 10 mg/kg, respectively)

CS(=O)(=O)c1ccc(C2=C(c3ccccc3)C(=O)OC2)cc1 [Rofecoxib]
anti-cancer effect (tumor-bearing mice): no significant anti-cancer effect

CC1=CC(=O)c2ccccc2C1=O [VK, 2-methyl-1,4-naphthalenedione]
tumor volume, effect of addition of Vitamin K3 ([1]; Experiment 8, FIG. 8, VK 20 mg/kg 6 times a week or 50 mg/kg twice a week added to CTX60+D30+A, 4 weeks): improve the efficacy of the treatment; also recorded: lower doses throughout the week (every day) is preferable
activity as an anti-cancer agent (cancer): failed to show any activity
